Measured values as given in patent US20150218516A1, “COMPOSITIONS AND METHODS FOR ENHANCING IMMUNE RESPONSES MEDIATED BY ANTIGEN-PRESENTING CELLS” (The Board of Regents of the University of Nebraska, priority 2007, published 2015).
“Also recorded” adds a separate entry of the source. Non-standard residues stand in square brackets, D forms with d. Residues, ends and D or L forms follow the SMILES beside them.

Tests used:
[1] = system: P815S (HBsAg transfectant) target cells; assay: HBsAg-specific CTL response of immunized mice, 51Cr-release cytotoxicity assay; assay type: in vivo, BALB/c mice; conditions: for % Specific Lysis: s.c. in PBS
Experimental: (§1) Groups of six to eight BALB/c mice were given bilateral s.c. injections in the inguinal area with (100 al each side) of a PBS solution containing 50-100 μg of the peptides. Booster injections were given s.c. in the inguinal region at 21-day intervals. Sera for Ab analysis were obtained by retro-orbital bleeds of mice under CO2 narcosis.
Three weeks after secondary) (2° immunization and two weeks after tertiary)(3° immunization, two to three mice from each experimental group were sacrificed by cervical dislocation and their spleens removed aseptically. Pooled splenic single-cell suspensions were prepared in RPMI-1640 medium (Sigma, St. Louis, Mo.) containing 10% FBS (Hyclone, Salt Lake City, Utah) and the following supplements: 10 mM HEPES buffer, 50 μM 2-ME, 2 mM L-glutamine, 50 μg/ml gentamicin sulfate, 100 Um′ penicillin, and 50 μg/ml streptomycin (all supplements from Sigma). This supplemented complete medium is designated RP10-SC. For culture, 75×10^6 pooled spleen cells in 5 ml of RP10-SC were pipetted into a 25 cm^2 T-flask (Corning). Next, 5 ml of RP 10-SC containing 150 nM of synthetic, L^d MHC class I-restricted peptide, […] (SEQ ID NO:12) were added to the flask. The flasks were incubated undisturbed in an upright position at 37° C. in 5% CO2. After 4 days of incubation, the cells were recovered from the T-flasks, washed once by centrifugation in fresh RP10-SC, resuspended in 5 ml RP10-SC, counted, and adjusted to 5×10^6 viable cells/ml.
The specific cell target used for measuring CTL activity was P815S, a transfectant cell line of P815 (H-2^d) expressing the HBsAg (14). P815S was grown in RP10-SC medium containing 400 μg/ml geneticin disulfate (G418, Sigma). The parental H-2^d mastocytoma cell line, P815 (ATTC #TIB64) grown in RP10-SC medium, was used as a non-specific target for CTL assays to measure % non-specific lysis.
The target cells, either P815S or P815, were washed 2 times in RP10-SC. For labeling, 5×10^6 target cells were mixed with 250 μCi ^51Cr-sodium chromate[400-1200 Ci (14.8-44.4 TBq)]/[…]; NEN Dupont, Boston, Mass.) in a 1.0 ml volume in a 50 ml conical tube and incubated in a 37° C. water bath for 90 mins. After incubation, the labeled cells were washed 3 times by centrifugation using 15 ml volumes of fresh RP10-SC and allowed to stand at room temperature for 30 mins. The pelleted cells were resuspended in RP10-SC at 1×10^6 cells/ml.
The recovered splenic effector cells at 5×10^6 cells/ml were serially diluted in triplicate in wells of round-bottom 96 well plates (Corning, 25850) in a total volume of 100 al/well and using RP10-SC as the diluent. Next, 100 μl volumes of ^51Cr-labeled targets, P815S or P815, at 1×10^6 cells/ml were added to the wells. Maximum release (MR) wells contained 100 al of target cells and 100 al of 2% (v/v) Tween 20 while spontaneous release (SR) wells contained labeled cells in medium alone. Effector-to-target ratios of 50:1, 25:1, 12.5:1, and 6.25:1 were routinely employed. The plates were centrifuged at 400×g and incubated at 37° C. in 5% CO2 for 4 hrs. After incubation, the supernatant fractions in the wells were collected using a Skatron Supernatant Collection System (Skatron Instruments, Sterlin, Va.). The amount of ^51Cr radioactivity in the supernatant fractions was measured using a Wallac 1470 Wizard gamma counter (Turku, Finland).

human PMNs = assay: MPO release from human PMNs; assay type: cell-based
Experimental: (§2) Statistical analysis of the values obtained from pharmacologic assays was performed using one-way analysis of variance (ANOVA).

human umbilical artery = assay: Smooth muscle contraction of human umbilical artery; assay type: cell-based
Experimental: as §2

[2] = system: immunizing peptide and free peptides; assay: ELISA of sera from mice immunized with HBsAg CTL epitope-C5a agonist constructs; assay type: in vivo; conditions: sera after three injections
Experimental: as §1
Thus, it was of interest to determine whether sera from mice immunized with the control peptides and epitope-C5a agonist constructs contained Ab directed against any of the peptides. […] (SEQ ID NO:12), […]

Caki-1 cells = assay: In vitro cytotoxicity of T lymphocytes cultured with peptide-pulsed dendritic cells against Caki-1; assay type: cell-based, human; conditions: cord blood-derived T lymphocytes cultured with dendritic cells exposed to the peptide
LNCaP cells = system: LNCaP cells
Experimental: An exemplary in vitro cytotoxicity assay comprises the following steps. Antigen presenting cells, such as dendritic cells, were obtained from bone marrow or blood. Dendritic cells were preferentially differentiated in culture through the addition of IL-4, GM-CSF, and TNFα for 7-10 days. Dendritic cells were then pulsed with peptides for 18 hours. MNCs were also isolated from spleens or blood (e.g., cord or peripheral) and cultured in IL-2 and GM-CSF for 7-10 days for enhanced lymphocyte proliferation. The pulsed dendritic cells were then co-cultured with the lymphocyte-enriched MNCs at a 1:10 ratio for 4 days. Lymphocyte-enriched MNC effector cells were then co-cultured with tumor target cells labeled with the bioactive fluorescent dye Calcein AM for 4 hours. Lysed cells were detected by photometrically measuring the released fluorescent dye.
Certain prostate carcinomas express prostate-specific membrane antigen (PSMA). […] The fusion peptides were administered to APCs which were subsequently presented to a lymphocyte-enriched population from cord blood as described hereinabove in Example 6. After antigen presentation by pulsed DC in co-culture, CTLs were tested for their ability to lyse three different target cell monolayers in an in vitro cytotoxicity assay. […] The fusion peptides were also administered to APCs which were subsequently presented to a adult peripheral blood-derived CTLs. In vitro cytotoxicity against the human prostate cancer cell line LNCaP was then assessed using the bioactive fluorescent dye calcein AM (FIG. 11D).

[3] = system: A-375 cell line (melanoma); assay type: cell-based, human
Experimental: (§3) The tumor peptide antigen tyrosinase is expressed on more than 70% of human melanoma cells that are human leukocyte antigen (HLA) A2 positive. […] The dendritic cells, presumably expressing the tyrosinase epitope, were then cultured with a lymphocyte-enriched cell population which was then cultured with melanoma cells to determine melanoma cell killing using a cytotoxic T lymphocyte assay.

SKmel-28 = assay: In vitro cytotoxicity of T lymphocytes cultured with peptide-pulsed dendritic cells against SKmel-28; assay type: cell-based, human; conditions: UCB or PBMC derived T lymphocytes cultured with dendritic cells exposed to the peptide
Experimental: as §3

For CC[C@H](C)[C@H](N)C(=O)N1CCC[C@H]1C(=O)N[C@@H](CCC(N)=O)C(=O)N[C@@H](CO)C(=O)N[C@@H](CC(C)C)C(=O)N[C@@H](CC(=O)O)C(=O)N[C@@H](CO)C(=O)N[C@@H](Cc1c[nH]c2ccccc12)C(=O)N[C@@H](Cc1c[nH]c2ccccc12)C(=O)N[C@H](C(=O)N[C@@H](CO)C(=O)N[C@@H](CC(C)C)C(=O)N[C@@H](CCCNC(=N)N)C(=O)N[C@@H](CCCNC(=N)N)C(=O)N[C@@H](Cc1ccc(O)cc1)C(=O)N[C@@H](CO)C(=O)N[C@@H](Cc1ccccc1)C(=O)N[C@@H](CCCCN)C(=O)N1CCC[C@H]1C(=O)N[C@@H](CCSC)C(=O)N1CCC[C@H]1C(=O)N[C@@H](CC(C)C)C(=O)N[C@H](C)C(=O)N[C@@H](CCCNC(=N)N)C(=O)O)[C@@H](C)O (H-IPQSLDSWWTSLRRYSFKPMPL[dA]R-OH), which “% Specific Lysis” value ([1]; Effector:Target 6.25:1, boost day 21, spleen cells day 42) is on record?
The value was 9%.

And the “% Specific Lysis” value ([1]; Effector:Target 12.5:1, boost day 21, spleen cells day 42)?
The value was 14%.

And the “% Specific Lysis” value ([1]; Effector:Target 25:1, boost day 21, spleen cells day 42)?
The value was 23%.

And the “% Specific Lysis” value ([1]; Effector:Target 50:1, boost day 21, spleen cells day 42, restimulated 4 days with S28-39)?
Its value is 32%.

What about the “Ag-specific CTL response (in words)” value ([1]; two or three s.c. injections at 21 day intervals, no added adjuvant) of the same compound?
Its value is “significant CTL response; also recorded: generated an Ag-specific CTL response; also recorded: robust CTL activity”.

What about the EC50 (human PMNs; 50% maximum release of myeloperoxidase) of the same compound?
Its EC50 is 540 nM.

And the “pD2 ± SE” value (human PMNs; −log EC50 (M), mean ± SE, n=3)?
Its value is 6.27 ± 0.29.

What about the EC50 (human umbilical artery; concentration resulting in 50% maximum contraction) of the same compound?
Its EC50 is 161 nM.

And the “agonist behaviour relative to natural C5a (in words)” value (human umbilical artery; umbilical artery contraction and MPO release assays)?
Its value is “full agonists”.

And the “pD2 ± SE” value (human umbilical artery; −log EC50 (M), mean ± SE, n=3)?
Its value is 6.79 ± 0.31.

What about the “serum binding to free peptides […] or YSFKPMPLaR” value [2] of the same compound?
The value was “did not bind”.

CSCC[C@H](NC(=O)[C@H](CC(=O)O)NC(=O)[C@H](CCCCN)NC(=O)[C@H](Cc1ccccc1)NC(=O)[C@H](CO)NC(=O)[C@@H](N)Cc1ccc(O)cc1)C(=O)N1CCC[C@H]1C(=O)N(C)[C@@H](CC(C)C)C(=O)N[C@H](C)C(=O)N[C@@H](CCCNC(=N)N)C(=O)O [YSFKDMP(MeL)aR] was tested. Which “cytotoxicity against tyrosinase-negative Caki-1 (in words)” value (Caki-1 cells) did it give?
The value was “incapable of killing”.

With YMNGTMSQV [tyrosinase antigen] as the compound, how does the “cytotoxicity against LNCaP (in words)” value (LNCaP cells) read?
Its value is “did not exhibit significant cytotoxicity”.

What about the “cytotoxicity against A-375 (in words)” value [3] of the same compound?
The value was “minimal cytotoxicity”.

What about the “cytotoxicity against SKmel-28 (in words)” value (SKmel-28) of the same compound?
The value was “minimal cytotoxicity”.
